Activity calls are given as the source filed them.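 How the source made its calls: active means cell viability below 70% of untreated cell signal at any tested dose; inactive means the rest.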

As a reminder, the CC50 is the concentration at which the toxic effect on the cells reaches its halfway point.

The subject of the assay is HEp-2 viability, luminescence (CellTiter-Glo). Kind of assay: viability loss in uninfected HEp-2 cells – cell-based, synthesized compounds, set 12, cytotoxicity control for RSV antiviral project, dose response (AID 540338).

Take `COCCCNC(=O)c1ccc(Cn2c(=O)c3ccccc3n(Cc3ccccn3)c2=O)cc1`: the CC50 was 16 µM.
For the molecule `COCCCNC(=O)c1ccc(Cn2c(=O)c3ccccc3n(Cc3ccc(C)cc3)c2=O)cc1`, the half-maximal cytotoxic concentration (CC50) is 69 µM.
Take `COCCCNC(=O)c1ccc(Cn2c(=O)c3ccccc3n(CCc3ccc(C)cc3)c2=O)cc1`: the cytotoxic concentration (CC50) was < 1.6 µM.
The same measure for `COCCCNC(=O)c1ccc(Cn2c(=O)c3ccccc3n(Cc3cccnc3)c2=O)cc1`: 8 µM; for `COCCCNC(=O)c1ccc(Cn2c(=O)c3ccccc3n(CC3CCCCC3)c2=O)cc1`: > 200 µM (inactive).
For the molecule `COCCCNC(=O)c1ccc(Cn2c(=O)c3ccccc3n(CCc3ccc(C(F)(F)F)cc3)c2=O)cc1`, the CC50 is 116 µM.
As to `COCCCNC(=O)c1ccc(Cn2c(=O)c3ccccc3n(CCc3ccc(Br)cc3)c2=O)cc1`, the CC50 was < 1.6 µM.
